Data published in patent publication US4336268A, “Cyclohexene derivative analgesics” (Hoffmann-La Roche Inc., priority 1980, dated 1982).
Where a name gives a salt, the structure may show the parent alone.

Key:
Format in all cases: in vivo
[1] = "writhing test" (analgesic activity); settings: p.o.; for ED50: Mus musculus, po
Excerpt: (§1) In the Table which follows are compiled the ED50 values obtained in this test with representative compounds of formula I. The Table also contains data relating to the acute toxicity of the compounds, that is, LD50 in mg/kg in the case of single oral administration to mice.

mice = experiment: acute toxicity, single oral administration to mice
Excerpt: as §1

[2] = acute toxicity, single oral administration to mice; settings: mouse, in vivo
Excerpt: as §1

| SMILES | ED50 in the "writhing test" ([1]; after 60 min., hydrochloride, 60 min) [mg/kg] | LD50 (mice) [mg/kg] | ED50 ([1]; 0.5 h, after 30 min.) [mg/kg] | ED50 ([1]; 1 h, after 60 min.) [mg/kg] | LD50 [2] [mg/kg] |
| --- | --- | --- | --- | --- | --- |
| COc1cccc(C2(CCN(C)C)C=CCCC2)c1.Cl (single isomer, unassigned; (-)) [(-)-1-(m-Methoxyphenyl)-N,N-dimethyl-2-cyclohexene-1-ethylam] [(-)-1-(m-Methoxyphenyl)-N,N-dimethyl-2-cyclohexene-1-ethylamine hydrochloride] | 19 | 250 to 500 |  |  |  |
| CN(C)CCC1(c2cccc(O)c2)C=CCCC1 (racemic) [rac. 1-(m-Hydroxyphenyl)-N,N-dimethyl-2-cyclohexene-1-ethylamine hydrochloride] |  |  | 41 | 26 | 250 to 500 |
| COc1cccc(C2(CCN(C)C)C=CCCC2)c1 (racemic) [rac. 1-(m-methoxyphenyl)-N,N-dimethyl-2-cyclohexene-1-ethylamine hydrochloride] |  |  | 33 | 35 | 150 to 300 |
| COc1cccc(C2(CCN(C)C)C=CCCC2)c1.Cl (single isomer, unassigned; (+)) [(+)-1-(m-Methoxyphenyl)-N,N-dimethyl-2-cyclohexene-1-ethylamine hydrochloride] |  |  |  | 24 | 250 to 500 |
